Where two headings read alike, the source gives them in different places. Bridge positions count the residues as written; N and C are the ends. Square brackets hold non-standard residues; d marks the D form. Peptide text beside a SMILES is read from it. * marks the point of attachment. Oic = O=C(O)[C@@H]1C[C@@H]2CCCC[C@@H]2N1; Cha = N[C@@H](CC1CCCCC1)C(=O)O; Tle = CC(C)(C)[C@H](N)C(=O)O; Nicotinoyl = O=C(c1cccnc1)*
Tests used:
rhEphB4 = target: T1, rhEphB4 (Homo sapiens, UniProt P54760); test: SPR binding to immobilized rhEphB4 (Biacore 3000)
T1 construct: purchased R&D Systems, Inc., Minneapolis, Minn
T1 sequence (P54760 16-987): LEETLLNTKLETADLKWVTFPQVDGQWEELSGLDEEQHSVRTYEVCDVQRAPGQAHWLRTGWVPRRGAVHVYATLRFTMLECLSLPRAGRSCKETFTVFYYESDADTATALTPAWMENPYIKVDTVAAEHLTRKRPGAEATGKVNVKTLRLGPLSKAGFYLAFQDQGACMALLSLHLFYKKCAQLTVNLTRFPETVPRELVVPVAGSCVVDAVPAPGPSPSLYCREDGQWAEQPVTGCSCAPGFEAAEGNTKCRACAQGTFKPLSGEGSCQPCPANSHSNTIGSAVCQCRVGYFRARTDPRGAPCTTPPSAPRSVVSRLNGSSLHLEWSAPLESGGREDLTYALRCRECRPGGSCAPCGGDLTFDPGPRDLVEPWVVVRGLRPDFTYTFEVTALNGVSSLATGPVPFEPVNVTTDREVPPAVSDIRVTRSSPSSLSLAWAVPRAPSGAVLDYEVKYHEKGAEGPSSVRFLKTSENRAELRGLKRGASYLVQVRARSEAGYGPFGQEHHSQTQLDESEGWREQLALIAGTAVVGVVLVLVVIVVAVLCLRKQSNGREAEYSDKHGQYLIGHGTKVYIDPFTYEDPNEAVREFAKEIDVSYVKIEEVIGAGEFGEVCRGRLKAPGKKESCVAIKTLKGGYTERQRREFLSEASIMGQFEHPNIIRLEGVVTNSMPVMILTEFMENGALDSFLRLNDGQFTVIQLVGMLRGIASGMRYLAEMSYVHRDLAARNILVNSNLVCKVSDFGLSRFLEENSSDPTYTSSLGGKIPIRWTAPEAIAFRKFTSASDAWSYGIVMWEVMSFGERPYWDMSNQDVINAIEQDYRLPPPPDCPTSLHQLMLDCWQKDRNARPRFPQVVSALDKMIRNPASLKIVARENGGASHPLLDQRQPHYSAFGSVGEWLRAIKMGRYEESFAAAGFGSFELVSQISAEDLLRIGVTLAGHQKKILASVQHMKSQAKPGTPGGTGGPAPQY
Experimental: (§1) Binding to selected ephrin receptors was measured by surface plasmon resonance on a Biacore3000 instrument. Commercially available ephrin receptors: EphA2, EphB2 and EphB4 (R&D Systems) were immobilized on a CM-5 chip by amine coupling and tested peptides were passed over a chip surface as analytes.
(§2) Binding studies. Binding studies were performed by surface plasmon resonance (SPR) on a BIAcore 3000 system (BiaCore AB, Piscataway, N.J.). BIAcore CM5 sensor chips were utilized in all experiments. Binding studies were performed in HBS-EP running buffer (pH=7.4) containing 10 mM HEPES, 150 mM NaCl, 3 mM EDTA, and 0.005% polysorbate 20. Commercially available ephrin receptors: EphA2, EphB2 and EphB4 (R&D Systems, Inc., Minneapolis, Minn.) were immobilized on a CM5 sensor chip using the amine coupling method. The chip was activated by mixing 400 mM N-ethyl-N-(3-dimethylaminopropyl)-carbodiimide hydrochloride and 100 mM N-hydroxysuccinimide. Residual reactive groups on the chip surface were blocked using 1.0 M ethanolamine/HCl (pH=8.5). The flow cell-1 chip, which served as a control, lacked immobilized protein but was treated with N-ethyl-N-(3-dimethylaminopropyl)-carbodiimide hydrochloride, N hydroxysuccinimide, and ethanolamine/HCl. Binding signals were corrected for nonspecific binding by subtracting the flow cell-1 signal (blank surface). To regenerate chip surfaces, bound ligands were removed with 10 mM HCl. Data were analyzed with BIAevaluation 4.1 software (Biacore, Piscataway, N.J.).

rhEphB2/Fc = rhEphB2/Fc (Homo sapiens, UniProt P29323); test: SPR binding to immobilized rhEphB2/Fc (Biacore 3000); parameters: Fc; purchased R&D Systems, Inc., Minneapolis, Minn
Experimental: as §1, §2

rhEphA2 = rhEphA2 (Homo sapiens, UniProt P29317); test: SPR binding to immobilized rhEphA2 (Biacore 3000); parameters: purchased R&D Systems, Inc., Minneapolis, Minn
Experimental: as §1, §2

**Q.** What does the source list for `C[C@@H](O)[C@@H]1NC(=O)[C@H](CCCNC(=N)N)NC(=O)[C@H](Cc2c[nH]cn2)NC(=O)CNC(=O)[C@@H]2C[C@@H]3CCCC[C@@H]3N2C(=O)[C@H](CC2CCCCC2)NC(=O)[C@H](C(C)(C)C)NC(=O)[C@@H](NC(=O)[C@H](CC2CCCCC2)NC(=O)[C@H](CC2CCCCC2)NC(=O)[C@H](CCCCN)NC(=O)[C@@H](N)Cc2ccc(O)cc2)CSSC[C@@H](C(=O)N[C@@H](CCCCN)C(N)=O)NC(=O)[C@H](CC2CCCCC2)NC1=O` [AzV31] (H-YK[Cha][Cha]C[Tle][Cha][Oic]GHRT[Cha]CK-NH2; disulfide 5-14; N-terminus assumed)?
**A.** Kd (rhEphB4; SPR, averaged from at least 4 independent experiments, read-out: KD ± SEM, rhEphB4): 146 ± 14 nM; Kd (rhEphB2/Fc; SPR, averaged from at least 4 independent experiments, read-out: KD ± SEM, rhEphB2/Fc): 192 ± 24 nM; Kd (rhEphA2; SPR, averaged from at least 4 independent experiments, read-out: KD ± SEM, rhEphA2): 196 ± 25 nM

**Q.** Which Kd (rhEphB4) does the source give for `C[C@@H](O)[C@@H]1NC(=O)[C@H](CCCNC(=N)N)NC(=O)[C@H](Cc2c[nH]cn2)NC(=O)[C@@H](CCCNC(=N)N)NC(=O)[C@@H]2C[C@@H]3CCCC[C@@H]3N2C(=O)[C@H](CC2CCCCC2)NC(=O)[C@H](C(C)(C)C)NC(=O)[C@@H](NC(=O)[C@H](CC2CCCCC2)NC(=O)[C@H](CC2CCCCC2)NC(=O)[C@H](CCCCN)NC(=O)[C@@H](N)Cc2ccc(O)cc2)CSSC[C@@H](C(=O)N[C@H](CCCCN)C(N)=O)NC(=O)[C@H](CC2CCCCC2)NC1=O` [AzV32] (H-YK[Cha][Cha]C[Tle][Cha][Oic][dR]HRT[Cha]C[dK]-NH2; disulfide 5-14) here?
**A.** The Kd was 197 ± 90 nM.

**Q.** And the Kd (rhEphB2/Fc)?
**A.** Its Kd is 471 ± 160 nM.

**Q.** What about the Kd (rhEphA2) of the same compound?
**A.** Its Kd is 169 ± 29 nM.

**Q.** What does the source list for `C[C@@H](O)[C@@H]1NC(=O)[C@H](CCCNC(=N)N)NC(=O)[C@H](Cc2c[nH]cn2)NC(=O)CNC(=O)[C@@H]2C[C@@H]3CCCC[C@@H]3N2C(=O)[C@H](CC2CCCCC2)NC(=O)[C@@H](CCCNC(=N)N)NC(=O)[C@@H](NC(=O)[C@H](CC2CCCCC2)NC(=O)[C@H](CC2CCCCC2)NC(=O)[C@H](CCCCN)NC(=O)[C@@H](N)Cc2ccc(O)cc2)CSSC[C@@H](C(=O)N[C@H](CCCCN)C(N)=O)NC(=O)[C@H](CC2CCCCC2)NC1=O` [AzV33] (H-YK[Cha][Cha]C[dR][Cha][Oic]GHRT[Cha]C[dK]-NH2; disulfide 5-14)?
**A.** Kd (rhEphB4): 78.6 ± 4.5 nM; Kd (rhEphB2/Fc): 106 ± 12 nM; Kd (rhEphA2): 100 ± 21 nM

**Q.** With `C[C@@H](O)[C@@H]1NC(=O)[C@H](CCCNC(=N)N)NC(=O)[C@H](Cc2c[nH]cn2)NC(=O)CNC(=O)[C@@H]2C[C@@H]3CCCC[C@@H]3N2C(=O)[C@H](CC2CCCCC2)NC(=O)[C@H](C(C)(C)C)NC(=O)[C@@H](NC(=O)[C@H](CC2CCCCC2)NC(=O)[C@H](CC2CCCCC2)NC(=O)[C@@H](CCCCN)NC(=O)[C@@H](N)Cc2ccc(O)cc2)CSSC[C@@H](C(=O)N[C@H](CCCCN)C(N)=O)NC(=O)[C@H](CC2CCCCC2)NC1=O` [AzV34] (H-Y[dK][Cha][Cha]C[Tle][Cha][Oic]GHRT[Cha]C[dK]-NH2; disulfide 5-14) as the compound, how does the Kd (rhEphB4) read?
**A.** The Kd was 135 ± 21 nM.

**Q.** What about the Kd (rhEphB2/Fc) of the same compound?
**A.** The Kd was 189 ± 21 nM.

**Q.** What about the Kd (rhEphA2) of the same compound?
**A.** Its Kd is 196 ± 21 nM.

**Q.** Which results are given for `C[C@@H](O)[C@@H]1NC(=O)[C@H](CCCNC(=N)N)NC(=O)[C@H](Cc2c[nH]cn2)NC(=O)[C@@H](CCCNC(=N)N)NC(=O)[C@@H]2C[C@@H]3CCCC[C@@H]3N2C(=O)[C@H](CC2CCCCC2)NC(=O)[C@@H](CCCNC(=N)N)NC(=O)[C@@H](NC(=O)[C@H](CC2CCCCC2)NC(=O)[C@H](CC2CCCCC2)NC(=O)[C@H](CCCCN)NC(=O)[C@@H](N)Cc2ccc(O)cc2)CSSC[C@@H](C(=O)N[C@H](CCCCN)C(N)=O)NC(=O)[C@H](CC2CCCCC2)NC1=O` [AzV35] (H-YK[Cha][Cha]C[dR][Cha][Oic][dR]HRT[Cha]C[dK]-NH2; disulfide 5-14)?
**A.** Kd (rhEphB4): 73.5 ± 3.7 nM; Kd (rhEphB2/Fc): 147 ± 19 nM; Kd (rhEphA2): 126 ± 22 nM

**Q.** With `C[C@@H](O)[C@@H]1NC(=O)[C@H](CCCNC(=N)N)NC(=O)[C@H](Cc2c[nH]cn2)NC(=O)[C@@H](CCCNC(=N)N)NC(=O)[C@@H]2C[C@@H]3CCCC[C@@H]3N2C(=O)[C@H](CC2CCCCC2)NC(=O)[C@H](C(C)(C)C)NC(=O)[C@@H](NC(=O)[C@H](CC2CCCCC2)NC(=O)[C@H](CC2CCCCC2)NC(=O)[C@@H](CCCCNC(=O)c2cccnc2)NC(=O)[C@@H](N)Cc2ccc(O)cc2)CSSC[C@@H](C(=O)N[C@H](CCCCN)C(N)=O)NC(=O)[C@H](CC2CCCCC2)NC1=O` [AzV36-Nic, YkNic-Cha-Cha-Cys-Tle-Cha-Oic-rHRT-Cha-Cys-k-CONH] (H-Y[dK](Nicotinoyl)[Cha][Cha]C[Tle][Cha][Oic][dR]HRT[Cha]C[dK]-NH2; disulfide 5-14) as the compound, how does the Kd (rhEphB4) read?
**A.** Its Kd is 138 ± 41 nM.

**Q.** What about the Kd (rhEphB2/Fc) of the same compound?
**A.** Its Kd is 251 ± 120 nM.

**Q.** And the Kd (rhEphA2)?
**A.** Its Kd is 425 ± 226 nM.

**Q.** How did the Kd (rhEphB4) turn out when `C[C@@H](O)[C@@H]1NC(=O)[C@H](CCCNC(=N)N)NC(=O)[C@H](Cc2c[nH]cn2)NC(=O)CNC(=O)[C@@H]2C[C@@H]3CCCC[C@@H]3N2C(=O)[C@H](CC2CCCCC2)NC(=O)[C@@H](CCCNC(=N)N)NC(=O)[C@@H](NC(=O)[C@H](CC2CCCCC2)NC(=O)[C@H](CC2CCCCC2)NC(=O)[C@@H](CCCCN)NC(=O)[C@@H](N)Cc2ccc(O)cc2)CSSC[C@@H](C(=O)N[C@H](CCCCN)C(N)=O)NC(=O)[C@H](CC2CCCCC2)NC1=O` [AzV37] (H-Y[dK][Cha][Cha]C[dR][Cha][Oic]GHRT[Cha]C[dK]-NH2; disulfide 5-14) was run?
**A.** Its Kd is 76 ± 14 nM.

**Q.** And the Kd (rhEphB2/Fc)?
**A.** Its Kd is 143 ± 37 nM.

**Q.** And the Kd (rhEphA2)?
**A.** Its Kd is 152 ± 38 nM.

**Q.** How did the Kd (rhEphB4) turn out when `C[C@@H](O)[C@@H]1NC(=O)[C@H](CCCNC(=N)N)NC(=O)[C@H](Cc2c[nH]cn2)NC(=O)[C@@H](CCCNC(=N)N)NC(=O)[C@@H]2C[C@@H]3CCCC[C@@H]3N2C(=O)[C@H](CC2CCCCC2)NC(=O)[C@@H](CCCNC(=N)N)NC(=O)[C@@H](NC(=O)[C@H](CC2CCCCC2)NC(=O)[C@H](CC2CCCCC2)NC(=O)[C@@H](CCCCN)NC(=O)[C@@H](N)Cc2ccc(O)cc2)CSSC[C@@H](C(=O)N[C@H](CCCCN)C(N)=O)NC(=O)[C@H](CC2CCCCC2)NC1=O` [AzV38] (H-Y[dK][Cha][Cha]C[dR][Cha][Oic][dR]HRT[Cha]C[dK]-NH2; disulfide 5-14) was run?
**A.** Its Kd is 46.3 ± 3.8 nM.

**Q.** And the Kd (rhEphB2/Fc)?
**A.** Its Kd is 101 ± 2.7 nM.

**Q.** And the Kd (rhEphA2)?
**A.** Its Kd is 109 ± 3.5 nM.

Source: US8716246B2, “Azuvirin peptides” (The Regents of the University of California, priority 2011, dated 2014)
